Results as given in patent EP2601963B1, “N-ISOVALEROYL-L-GLUTAMYL-L-TRYPTOPHAN AS AN AGENT INHIBITING THE FORMATION OF ULCERS IN THE STOMACH AND THE DUODENUM” (Obshestvo S Ogranichennoj Otvetstvennostju "CytoNIR", priority 2010, dated 2015).

Key:
[1] = system: indomethacin-induced gastric ulcers; assay: Indomethacin-induced ulcer model, preventive treatment: gastric lesions; assay type: in vivo, male Wistar rats; set-up: key to GA1 (gastroprotective activity calculated for number of lesions): GA1 = Pauls Index of control / Pauls Index of treated group; key to GA2 (gastroprotective activity calculated for lesion size): GA2 = Ulcer Index of control / Ulcer Index of treated group; key to Ulcer Index: UI = mean lesion area in group x % animals with lesions / 100; Small round Size / Total Size / Large round Size / Linear Size / Lesion Size: unit not given here; conditions: for # Lesions / % Animals with Ulcers / GA1 (gastroprotective activity calculated for number of lesions) / GA2 (gastroprotective activity calculated for lesion size) / Lesion Size / PI / Ulcer Index / Large round Amount / Large round Size / Linear Amount / Linear Size / Small round Amount / Small round Size / Total Amount / Total Size: preventive; for Large round Amount / Large round Size / Linear Amount / Linear Size / Small round Amount / Small round Size / Total Amount / Total Size: indomethacin-induced ulcers
Experimental: (§1) All studies were conducted on male Wistar rats weighing 220 ± 20 g, obtained from Rappolovo nursery (Leningrad oblast). For 14 days prior to the experiment, the animals were held in isolation. The animals were handled in accordance with the European Convention for the Protection of Vertebrate Animals used for Experimental and Other Scientific Purposes (Strasburg, 1986). The animals were held in standard plastic cages and fed a standard diet of PK120-3 (granulated feed in accordance with order # 1179 M3 USSR 10/10/1983) with a free access to water.
(§2) Animals' body weight changes were monitored throughout the experiment. The experimental animals were then sacrificed by decapitation, and their blood was collected in test tubes. The stomachs were extracted, dissected along the major curve, rinsed with cold saline solution, and the mucosa was carefully examined through a magnifying glass under bright lights. The mucosa was inspected for color, the presence of hyperemia and its intensity. The number of lesions, which were differentiated into small round (less than 1 mm), linear, and large lesions (more than 1mm) and the size of the area they covered were calculated. The average number of lesions per one animal in a group and the percentage of animals with ulcers were also calculated. Pauls Index (PI) was used as an integral indicator of the number of lesions and was calculated as follows: • PI = average number of lesions in a group x % of animals with lesions/100 [Pauls F., Wick A.M.,Mac. Key E.M. et al. An assau method for anti ulcer substances // Gastroenterology.- 1947. #8.- p.p.774 - 782]. Ulcer index UI was calculated as: UI = average lesion area size in the group x % of animals with lesions/100; gastroprotective activity GA1 was calculated as: GA1 = PI of the control group/PI of the experimental group, GA2 = UI of the control group/UI of the experimental group.
(§3) Five groups of 10 animals per group were prepared for the experiment as described in Example 1.
In each series of experiments, the animals were divided into experimental and control groups at 10 animals per group. The animals in the experimental group were orally administered the proposed medication or a comparator drug, and the control animals were given distilled water in the same amount. • control group received distilled water per os; • experimental group 1 received 0.1 mkg/kg N-isovaleroyl-L-glutamyl-L-tryptophan; • experimental group 2 received 10 mkg/kg N-isovaleroyl-L-glutamyl-L-tryptophan; • experimental group 3 received 200 mkg/kg of the comparator drug Sucralfate.
The efficacy of the course of preventive treatment with the claimed composition was evaluated 24 hrs. post indomethacin administration. The study was conducted as in Example 1.

[2] = system: indomethacin-induced ulcers; assay: Indomethacin-induced ulcer model, therapeutic treatment: healing of gastric lesions; assay type: in vivo, male Wistar rats
Experimental: as §1
as §2, with “group. The proposed drug was considered active when GA ≥ 2.” for “group.”
as §3
In each series of the experiments, the animals were divided into experimental and control groups at 10 animals per group. The proposed medication or a comparator drug were orally administered to the animals in the experimental group, and the control animals were given distilled water in the same amount. • control group received distilled water per os; • experimental group 1 received 0.1 mkg/kg isovaleroyl glutamyl tryptophan; • experimental group 2 received 10 mkg/kg isovaleroyl glutamyl tryptophan; • experimental group 3 received 200 mkg/kg of the comparator drug Sucralfate.
2 ml/kg of the ulcerogenic dose of indomethacin equal to 30 mg/kg was administered intraperitoneally. The treatment started 24 hrs. post indomethacin administration and continued for 5 days. The animals in the experimental groups received N-isovaleroyl-L-glutamyl-L-tryptophan or the comparator drug Sucralfate, and the control group received distilled water.

[3] = 0.1 mkg/kg + Indomethacin 20 mg/kg
[4] = 10 mkg/kg + Indomethacin 20 mg/kg
[5] = Indomethacin 30 mg/kg + 200 mg/kg, treatment 5 days

N-isovaleroyl-L-glutamyl-L-tryptophan [VGT preparation]
# Lesions [1, 3]: 7.5 ± 1.0
% Animals with Ulcers [1, 3]: 100%
GA1 (gastroprotective activity calculated for number of lesions) [1, 3]: 2.84
GA2 (gastroprotective activity calculated for lesion size) [1, 3]: 5.51
Lesion Size [1, 3]: 4.1 ± 0.9
PI [1, 3]: 7.5
Ulcer Index [1, 3]: 4.1
Large round Amount ([1]; 0.1 mkg/kg): 2.7 ± 0.5
Large round Size ([1]; 0.1 mkg/kg): 1.4 ± 0.3
Linear Amount ([1]; 0.1 mkg/kg): 2.0 ± 0.7
Linear Size ([1]; 0.1 mkg/kg): 1.9 ± 0.7
Small round Amount ([1]; 0.1 mkg/kg): 2.8 ± 0.7
Small round Size ([1]; 0.1 mkg/kg): 0.8 ± 0.2
Total Amount ([1]; 0.1 mkg/kg): 7.5 ± 1.0
Total Size ([1]; 0.1 mkg/kg): 4.1 ± 0.9
# Lesions [1, 4]: 8.3 ± 1.7
% Animals with Ulcers [1, 4]: 100%
GA1 (gastroprotective activity calculated for number of lesions) [1, 4]: 2.57
GA2 (gastroprotective activity calculated for lesion size) [1, 4]: 5.51
Lesion Size [1, 4]: 4.1 ± 1.6
PI [1, 4]: 8.3
Ulcer Index [1, 4]: 4.1
Large round Amount ([1]; 10.0 mkg/kg): 3.5 ± 0.9
Large round Size ([1]; 10.0 mkg/kg): 1.7 ± 0.6
Linear Amount ([1]; 10.0 mkg/kg): 1.2 ± 0.5
Linear Size ([1]; 10.0 mkg/kg): 1.8 ± 1.1
Small round Amount ([1]; 10.0 mkg/kg): 3.6 ± 1.3
Small round Size ([1]; 10.0 mkg/kg): 0.5 ± 0.1
Total Amount ([1]; 10.0 mkg/kg): 8.3 ± 1.7
Total Size ([1]; 10.0 mkg/kg): 4.1 ± 1.6
size of the lesions in the gastric mucosa reduced ([1]; preventive treatment, indomethacin-induced lesions): 5 times

aluminum complex of beta-D-fructofuranosyl-alpha-D-glucopyranoside octakis (hydrosulfate) [Sucralfate]
# Lesions [2, 5]: 3.3 ± 1.0
% Animals with Ulcers [2, 5]: 85.7%
GA1 (gastroprotective activity calculated for number of lesions) [2, 5]: 3.0
GA2 (gastroprotective activity calculated for lesion size) [2, 5]: 3.3
Lesion Size [2, 5]: 11.5 ± 4.26
PI [2, 5]: 2.8
Ulcer Index [2, 5]: 9.86
animals found to have lesions ([2]; treatment after Indomethacin): 85.7%
